Results on six compounds are retold here after article PMC6681222, “Discovery and Rational Design of a Novel Bowman-Birk Related Protease Inhibitor” (Biomolecules, 2019).

One series has as its target T1, trypsin (Bos taurus, UniProt P00760).
T1 construct: gene PRSS1
T1 sequence (P00760 24-246): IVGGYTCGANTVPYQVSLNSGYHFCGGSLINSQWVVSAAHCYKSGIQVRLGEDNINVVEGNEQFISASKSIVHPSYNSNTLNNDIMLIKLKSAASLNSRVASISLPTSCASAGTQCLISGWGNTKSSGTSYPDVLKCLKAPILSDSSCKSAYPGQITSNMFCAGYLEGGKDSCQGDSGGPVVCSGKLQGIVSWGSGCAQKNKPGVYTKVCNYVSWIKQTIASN
Kind of series: Trypsin inhibition assay. It counts as biochemical. On the procedure:
(§1) The trypsin, chymotrypsin inhibition tests were performed as described previously. 10 µL tryptase (1 mg/mL, Calbiochem, UK) was added to the wells of a micro-titer plate containing 180 µL substrate (Boc-Phe-Ser-Arg-NHMec, obtained from Bachem, UK) (50 µM) and 20 µL synthetic replicates (0.1–100 µM) in a tryptase buffer, pH7.6, containing 0.05 M Tris, 0.15 M NaCl, and 0.2% (w/v) polyethylene glycol 6000 (final volume 210 µL).
The inhibition curves of the trypsin/chymotrypsin inhibition assay and tryptase inhibition assay were formed as outlined before.
(§2) The progress curves for the hydrolysis of the fluorogenic substrate were used to estimate an initial rate (Vi) to generate the Morrison plots. All of the progress curves and corresponding Morrison plots in the presence of each peptide of different concentrations are shown in Figure S4.

In another series the target is chymotrypsin (Bos taurus, UniProt P00766). Kind of series: Chymotrypsin inhibition assay. The class given is biochemical. Particulars: fluorogenic substrate, AMC release (ex 360/em 460 nm), Morrison plot; average of three independent experiments. On the procedure: as §1
(§3) The rate of hydrolysis of the substrate was monitored by measuring the rate of increase of fluorescence due to the release of 7–amino–4–methylcoumarin (AMC) at 460 nm (excitation 360 nm) in a FLUOstar OPTIMA multi-well plate reader. The inhibition curves of the trypsin/chymotrypsin inhibition assay and tryptase inhibition assay were formed as outlined before.
PPF-BBI and its analogues were tested for inhibitory activity against trypsin, chymotrypsin and tryptase, respectively. The progress curves for the hydrolysis of the fluorogenic substrate were used to estimate an initial rate (Vi) to generate the Morrison plots. All of the progress curves and corresponding Morrison plots in the presence of each peptide of different concentrations are shown in Figure S4.

The subject of a further series is E. coli (NCTC 10418). The class given is cell-based. On the procedure:
(§4) The MIC and MBC of the synthetic peptides were determined as previously described, using S. aureus (NCTC 10788), E. coli (NCTC 10418) and C. albicans (NCYC 1467), together with two species of resistant micro-organisms, methicillin-resistant S. aureus (MRSA) (ATCC 12493) and P. aeruginosa (ATCC 27853).

In series [1] the test system is P. aeruginosa (ATCC 27853). The class given is cell-based. On the procedure: as §4
A further series has as its system S. aureus (NCTC 10788). The class given is cell-based. On the procedure: as §4
For the next series, the system named is C. albicans (NCYC 1467). The class given is cell-based. On the procedure: as §4
In series [2] the test system is methicillin-resistant S. aureus (MRSA) (ATCC 12493). It counts as cell-based. On the procedure:
as §4

Another series addresses T2, tryptase (Homo sapiens, UniProt Q15661).
T2 construct: purchased Calbiochem, UK
Kind of series: Tryptase inhibition assay. The settings on record: substrate Boc-Phe-Ser-Arg-NHMec 50 µM, peptide 0.1-100 µM, tryptase buffer pH 7.6, Morrison plot; average of three independent experiments. It counts as biochemical. On the procedure: as §1, §3, §2

Another series has as its system horse erythrocytes. The experiment in a line: Haemolysis test. The class given is cell-based. The settings on record: 2% suspension of horse erythrocytes, 512 to 1 µM peptide, 4 h; 2% Triton X-100 = 100% haemolysis. On the procedure: The haemolytic activity of each peptide was measured by incubating a range of final peptide concentrations from 512 to 1 µM in a two-fold dilution in a 2% suspension of horse erythrocytes, as described in a previous study.
Figure 4 (a) The cell viability of the cancer cell lines H460, H157, H23, H838, HT-29, PC-3, U251MG and HMEC-1 at 4 mM 5-FU (stripe bar), 100 µM and 10 µM PPF-BBI, F^8-PPF-BBI, K^16-PPF-BBI and Tat-loop. The control represents the cell viability without any treatments. The statistical significance of difference was analyzed by a one-way ANOVA (* p < 0.05, **** p < 0.0001). (b) The haemolysis rates of PPF-BBI, F^8-PPF-BBI, K^16-PPF-BBI and Tat-loop on erythrocytes after being incubated for 4 h. The incubation of erythrocytes with 2% (v/v) Triton X-100 was designated as a positive control (100% haemolysis).

In brackets after ≈: the same amount, converted by molar mass. Entries after “also recorded” stand apart in the source; their conditions may differ. Bridge positions count the residues as written; N and C are the ends. Peptide text beside a SMILES is read from it. A value given as a limit tells only on which side of the number the result lay.

T2 sequence (Q15661 31-275): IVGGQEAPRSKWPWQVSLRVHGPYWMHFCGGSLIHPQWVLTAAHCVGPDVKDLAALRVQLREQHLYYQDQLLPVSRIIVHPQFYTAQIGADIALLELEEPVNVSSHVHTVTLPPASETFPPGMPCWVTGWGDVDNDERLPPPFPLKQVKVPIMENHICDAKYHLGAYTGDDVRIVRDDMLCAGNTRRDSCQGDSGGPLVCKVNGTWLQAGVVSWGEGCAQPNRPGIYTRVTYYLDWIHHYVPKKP

The term Ki denotes the dissociation constant of the complex between target and ligand, obtained from inhibition or displacement. As usually defined, the MBC is the smallest concentration meeting the test's criterion for killing. Low readings indicate more potent killing, high ones less potent killing. Usually MIC stands for the smallest concentration in the dilution series that meets the test's criterion for growth inhibition. A lower MIC goes with inhibition by little substance. As to `CC[C@H](C)[C@@H]1NC(=O)[C@H](CO)NC(=O)[C@H](Cc2ccccc2)NC(=O)[C@H]([C@@H](C)O)NC(=O)[C@H](Cc2c[nH]c3ccccc23)NC(=O)[C@@H](NC(=O)CNC(=O)[C@H](CCCNC(=N)N)NC(=O)[C@H](CC(C)C)NC(=O)[C@H](C)N)CSSC[C@@H](C(=O)N2CCC[C@H]2C(N)=O)NC(=O)[C@@H]2CCCN2C(=O)[C@H](CCCCN)NC(=O)[C@@H]2CCCN2C(=O)[C@@H]2CCCN2C1=O` [F^8-PPF-BBI] (H-ALRGCWTFSIPPKPCP-NH2; disulfide 5-15), the “Ki (µM) of Trypsin” value at trypsin (fluorogenic substrate, AMC release (ex 360/em 460 nm), Morrison plot, average of three independent experiments) is on record as “N.I.*”. At chymotrypsin, this compound returned a Ki of 0.85 µM. Besides, the MBC (against E. coli (NCTC 10418); in series [1]; against S. aureus (NCTC 10788); against C. albicans (NCYC 1467); in series [2]) was more than 512 µM each time. Further, the MIC (in the series on E. coli (NCTC 10418); in series [1]; with S. aureus (NCTC 10788); in the series with C. albicans (NCYC 1467); in series [2]) was more than 512 µM in each case. Also, the “Ki (µM) of Tryptase” value on tryptase is reported as “N.I.*”.
For `CC[C@H](C)[C@@H]1NC(=O)[C@H](CO)NC(=O)[C@H](CCCCN)NC(=O)[C@H]([C@@H](C)O)NC(=O)[C@H](Cc2c[nH]c3ccccc23)NC(=O)[C@@H](NC(=O)CNC(=O)[C@H](CCCNC(=N)N)NC(=O)[C@H](CC(C)C)NC(=O)[C@H](C)N)CSSC[C@@H](C(=O)N[C@@H](CCCCN)C(N)=O)NC(=O)[C@@H]2CCCN2C(=O)[C@H](CCCCN)NC(=O)[C@@H]2CCCN2C(=O)[C@@H]2CCCN2C1=O` [K^16-PPF-BBI] (H-ALRGCWTKSIPPKPCK-NH2; disulfide 5-15), the Ki at trypsin amounted to 112 nM; on tryptase, 9.67 µM. At chymotrypsin, the “Ki (µM) of Chymotrypsin” value is “N.I.*”. Besides, the MBC in the series on E. coli (NCTC 10418) came to 128 µM (≈ 228 µg/mL); in series [1], 512 µM (≈ 912 µg/mL); against S. aureus (NCTC 10788), 64 µM (≈ 114 µg/mL); against C. albicans (NCYC 1467) it was 128 µM (≈ 228 µg/mL); in series [2] it was 512 µM (≈ 912 µg/mL). Further, the MIC against E. coli (NCTC 10418) came out at 128 µM (≈ 228 µg/mL); in [1] it was 512 µM (≈ 912 µg/mL); against S. aureus (NCTC 10788) it was 64 µM (≈ 114 µg/mL); in the series with C. albicans (NCYC 1467), 128 µM (≈ 228 µg/mL); in [2], 512 µM (≈ 912 µg/mL).
On to `CC[C@H](C)[C@@H]1NC(=O)[C@H](CO)NC(=O)[C@H](CCCCN)NC(=O)[C@H]([C@@H](C)O)NC(=O)[C@H](Cc2c[nH]c3ccccc23)NC(=O)[C@@H](NC(=O)CNC(=O)[C@H](CCCNC(=N)N)NC(=O)[C@H](CC(C)C)NC(=O)[C@H](C)N)CSSC[C@@H](C(=O)N2CCC[C@H]2C(N)=O)NC(=O)[C@@H]2CCCN2C(=O)[C@H](CCCCN)NC(=O)[C@@H]2CCCN2C(=O)[C@@H]2CCCN2C1=O` [PPF-BBI] (H-ALRGCWTKSIPPKPCP-NH2; disulfide 5-15), for which the inhibition constant Ki turned out to be 170 nM at trypsin and 30.7 µM on tryptase. In addition, the “Ki (µM) of Chymotrypsin” value on chymotrypsin is “N.I.*”. The MBC is 128 µM (≈ 224 µg/mL) in the series with E. coli (NCTC 10418); more than 512 µM in series [1]; 128 µM (≈ 224 µg/mL) in the series on S. aureus (NCTC 10788); 512 µM (≈ 897 µg/mL) with C. albicans (NCYC 1467); more than 512 µM in series [2]. The MIC in the series with E. coli (NCTC 10418) is 128 µM (≈ 224 µg/mL); in series [1], more than 512 µM; with S. aureus (NCTC 10788), 128 µM (≈ 224 µg/mL); in the series on C. albicans (NCYC 1467), 512 µM (≈ 897 µg/mL); in series [2], more than 512 µM.
With `CC[C@H](C)[C@@H]1NC(=O)[C@H](CO)NC(=O)[C@H](CCCCN)NC(=O)[C@H]([C@@H](C)O)NC(=O)[C@H](Cc2c[nH]c3ccccc23)NC(=O)[C@@H](N)CSSC[C@@H](C(=O)O)NC(=O)[C@@H]2CCCN2C(=O)[C@H](CCCCN)NC(=O)[C@@H]2CCCN2C(=O)[C@@H]2CCCN2C1=O` [TIL, reference compound], the “Ki (µM) of Chymotrypsin” value at chymotrypsin is reported as “N.I.*”. For the same compound, the MBC (against E. coli (NCTC 10418); in [1]; against S. aureus (NCTC 10788); against C. albicans (NCYC 1467); in [2]) was more than 512 µM each time. For the same compound, the MIC (against E. coli (NCTC 10418); in [1]; in the series on S. aureus (NCTC 10788); against C. albicans (NCYC 1467); in series [2]) was more than 512 µM throughout. Besides, the “Ki (µM) of Tryptase” value on tryptase was “lost their inhibitory activity; also recorded: N.I.*”.
With `N=C(N)NCCC[C@H](NC(=O)[C@H](CCCNC(=N)N)NC(=O)[C@H](CCCNC(=N)N)NC(=O)[C@H](CCC(N)=O)NC(=O)[C@H](CCCNC(=N)N)NC(=O)[C@H](CCCNC(=N)N)NC(=O)[C@H](CCCCN)NC(=O)[C@H](CCCCN)NC(=O)[C@@H](N)CCCNC(=N)N)C(=O)O` [Tat, reference compound], the MBC in the series with E. coli (NCTC 10418) was 256 µM (≈ 343 µg/mL); in series [1], more than 512 µM; in the series on S. aureus (NCTC 10788) it was 512 µM (≈ 686 µg/mL); in the series on C. albicans (NCYC 1467), more than 512 µM; in [2] it was more than 512 µM. Moreover, the minimal inhibitory concentration (MIC) was 256 µM (≈ 343 µg/mL) in the series with E. coli (NCTC 10418); more than 512 µM in [1]; 512 µM (≈ 686 µg/mL) against S. aureus (NCTC 10788); more than 512 µM in the series with C. albicans (NCYC 1467); more than 512 µM in [2].
For `CC[C@H](C)[C@@H]1NC(=O)[C@H](CO)NC(=O)[C@H](CCCCN)NC(=O)[C@H]([C@@H](C)O)NC(=O)[C@H](Cc2c[nH]c3ccccc23)NC(=O)[C@@H](NC(=O)[C@H](CCCNC(=N)N)NC(=O)[C@H](CCCNC(=N)N)NC(=O)[C@H](CCCNC(=N)N)NC(=O)[C@H](CCC(N)=O)NC(=O)[C@H](CCCNC(=N)N)NC(=O)[C@H](CCCNC(=N)N)NC(=O)[C@H](CCCCN)NC(=O)[C@H](CCCCN)NC(=O)[C@@H](N)CCCNC(=N)N)CSSC[C@@H](C(=O)O)NC(=O)[C@@H]2CCCN2C(=O)[C@H](CCCCN)NC(=O)[C@@H]2CCCN2C(=O)[C@@H]2CCCN2C1=O` [Tat-loop] (H-RKKRRQRRRCWTKSIPPKPC-OH; disulfide 10-20), in the series on horse erythrocytes, the Haemolytic activity result is “low haemolytic activity”. Moreover, the Ki on trypsin came to 607 nM. In addition, the “Ki (µM) of Chymotrypsin” value at chymotrypsin was “N.I.*”. For the same compound, the MBC turned out to be 128 µM (≈ 330 µg/mL) against E. coli (NCTC 10418); 256 µM (≈ 660 µg/mL) in series [1]; 128 µM (≈ 330 µg/mL) against S. aureus (NCTC 10788); 8 µM (≈ 20.6 µg/mL) against C. albicans (NCYC 1467); 512 µM (≈ 1320 µg/mL) in series [2]. Besides, the MIC against E. coli (NCTC 10418) worked out at 128 µM (≈ 330 µg/mL); in series [1], 256 µM (≈ 660 µg/mL); against S. aureus (NCTC 10788), 128 µM (≈ 330 µg/mL); in the series with C. albicans (NCYC 1467), 4 µM (≈ 10.3 µg/mL); in [2] it was 256 µM (≈ 660 µg/mL). In addition, the “Ki (µM) of Tryptase” value at tryptase was “lost their inhibitory activity; also recorded: N.I.*”.
